The test has as its system CD2F1 mice, L1210 leukemia ip, survival T/C. The test is described as follows: NCI In Vivo Anticancer Drug Screen. Data for tumor model L1210 Leukemia (intraperitoneal) in CD2F1 (CDF1) mice. To be noted: higher = longer survival. A digest of the protocol: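 Transplantable tumor in mice; compound-treated vs vehicle-treated groups. Read-out = treated/control ratio of the measured endpoint.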

The mark [1] stands for this setting: endpoint: mean survival time, dose: 100.0 mg/kg/injection, schedule: Q04DX002 (ip), vehicle: saline with Tween-80.
Setting [2] is: endpoint: mean survival time, dose: 200.0 mg/kg/injection, schedule: Q04DX002 (ip), vehicle: saline with Tween-80.
The mark [3] stands for this setting: endpoint: mean survival time, dose: 400.0 mg/kg/injection, schedule: Q04DX002 (ip), vehicle: saline with Tween-80.
Setting [4] is: endpoint: mean survival time, dose: 100.0 mg/kg/injection, schedule: Q01DX009 (ip), vehicle: saline.
[5] abbreviates: endpoint: mean survival time, dose: 50.0 mg/kg/injection, schedule: Q01DX009 (ip), vehicle: saline with Tween-80.
[6] abbreviates: endpoint: mean survival time, dose: 100.0 mg/kg/injection, schedule: Q01DX009 (ip), vehicle: saline with Tween-80.
[7] abbreviates: endpoint: mean survival time, dose: 100.0 mg/kg/injection, schedule: Q04DX003 (ip), vehicle: saline with Tween-80.
[8] abbreviates: endpoint: mean survival time, dose: 200.0 mg/kg/injection, schedule: Q01DX009 (ip), vehicle: saline with Tween-80.
Setting [9] is: endpoint: mean survival time, dose: 200.0 mg/kg/injection, schedule: Q04DX003 (ip), vehicle: saline with Tween-80.
Setting [10] is: endpoint: mean survival time, dose: 100.0 mg/kg/injection, schedule: Q04DX003 (ip), vehicle: saline.
Where [11] appears, read: endpoint: mean survival time, dose: 200.0 mg/kg/injection, schedule: Q04DX003 (ip), vehicle: saline.
The mark [12] stands for this setting: endpoint: mean survival time, dose: 400.0 mg/kg/injection, schedule: Q04DX003 (ip), vehicle: saline.

“And” between values parts separate entries of the source, which are not always exact repeats. Equal values may be shown once. Inconclusive results and toxic doses are left out.

For `COC(=O)C[C@](O)(CCC(C)(C)O)C(=O)O[C@@H]1C(OC)=C[C@]23CCCN2CCc2cc4c(cc2[C@H]13)OCO4`, the T/C (endpoint: median survival time, dose: 0.06 mg/kg/injection, schedule: Q01DX009 (ip), vehicle: saline) is 120 % of control; the T/C (endpoint: median survival time, dose: 0.12 mg/kg/injection, schedule: Q01DX009 (ip), vehicle: saline) is 119 % of control; the T/C (endpoint: median survival time, dose: 0.25 mg/kg/injection, schedule: Q01DX009 (ip), vehicle: saline) was 120 % of control; the T/C (endpoint: median survival time, dose: 0.5 mg/kg/injection, schedule: Q01DX009 (ip), vehicle: saline) is 118 % of control and 120 % of control; the T/C (endpoint: median survival time, dose: 4.0 mg/kg/injection, schedule: Q01DX009 (ip), vehicle: saline) is 153 % of control.
On to `CN(C)C(=O)Nc1ccc(F)cc1`, for which the T/C is 97 % of control under setting [1], 102 % of control under setting [2] and 91 % of control under setting [3].
In the case of `S=C=Nc1ccccn1`, the T/C is 86 % of control under setting [1] and 101 % of control under setting [2].
For `S=C(S)NCCNC(=S)S`, the T/C is, setting by setting: under setting [4], 102 % of control; (endpoint: mean survival time, dose: 200.0 mg/kg/injection, schedule: Q01DX009 (ip), vehicle: saline) 100 % of control; (endpoint: mean survival time, dose: 400.0 mg/kg/injection, schedule: Q01DX009 (ip), vehicle: saline) 90 % of control.
Consider `CCOC(=O)c1cc(C(=O)OCC)c2ccc(Br)ccc1-2`, for which the T/C is, setting by setting: (endpoint: mean survival time, dose: 100.0 mg/kg/injection, schedule: Q01DX001 (sc), vehicle: olive oil, sesame oil, peanut oil) 105 % of control; (endpoint: mean survival time, dose: 200.0 mg/kg/injection, schedule: Q01DX001 (sc), vehicle: olive oil, sesame oil, peanut oil) 96 % of control; (endpoint: mean survival time, dose: 400.0 mg/kg/injection, schedule: Q01DX001 (sc), vehicle: olive oil, sesame oil, peanut oil) 93 % of control.
Regarding `COc1ccc(/C(C)=N\NC(=O)c2ccccc2)cc1`, the T/C was 91 % of control under setting [5]; 94 % of control under setting [6]; 98 % of control under setting [7]; 89 % of control under setting [8]; 104 % of control under setting [9].
Consider `C=C(Br)CNCCCCCC`, for which the T/C reads like this: (endpoint: mean survival time, dose: 12.5 mg/kg/injection, schedule: Q04DX003 (ip), vehicle: Klucel (hydroxypropylcellulose) (HPC)) 97 % of control; (endpoint: mean survival time, dose: 25.0 mg/kg/injection, schedule: Q04DX003 (ip), vehicle: Klucel (hydroxypropylcellulose) (HPC)) 100 % of control; (endpoint: mean survival time, dose: 50.0 mg/kg/injection, schedule: Q04DX003 (ip), vehicle: Klucel (hydroxypropylcellulose) (HPC)) 94 % of control.
As for `C[Si](C)(C)C1C=CC=C1`, the T/C is 100 % of control under setting [1], 100 % of control under setting [2] and 92 % of control under setting [3].
In the case of `O=Cc1ccc2ccccc2[n+]1[O-]`, the T/C is, setting by setting: under setting [10], 101 % of control; under setting [11], 100 % of control; under setting [12], 101 % of control.
Turning to `[Co].[N-]=C=S.[N-]=C=S.[N-]=C=S.[N-]=C=S`, the T/C was 104 % of control (endpoint: mean survival time, dose: 25.0 mg/kg/injection, schedule: Q04DX002 (ip), vehicle: saline); 104 % of control (endpoint: mean survival time, dose: 50.0 mg/kg/injection, schedule: Q04DX002 (ip), vehicle: saline); 117 % of control and 112 % of control (endpoint: mean survival time, dose: 100.0 mg/kg/injection, schedule: Q04DX002 (ip), vehicle: saline).
In the case of `O=C(CNC(=O)Nc1cccc([N+](=O)[O-])c1)N/N=C/c1cccc(O)c1`, the T/C under setting [5] was 92 % of control, the T/C under setting [6] was 95 % of control and the T/C under setting [8] was 95 % of control.
Take `N=C(OC/C=C/c1ccccc1)C(Cl)(Cl)Cl`: the T/C is 93 % of control (endpoint: mean survival time, dose: 100.0 mg/kg/injection, schedule: Q01DX001 (ip), vehicle: saline with Tween-80); 93 % of control (endpoint: mean survival time, dose: 200.0 mg/kg/injection, schedule: Q01DX001 (ip), vehicle: saline with Tween-80); 93 % of control (endpoint: mean survival time, dose: 400.0 mg/kg/injection, schedule: Q01DX001 (ip), vehicle: saline with Tween-80).
On to `CC(C)=CCC/C(C)=C/COc1ccc(/C=C2/C(=O)N(O)[C@@H](C)C(=O)N2O)cc1`, for which the T/C is, setting by setting: (endpoint: mean survival time, dose: 1.56 mg/kg/injection, schedule: Q01DX009 (ip), vehicle: saline with Tween-80) 101 % of control; (endpoint: mean survival time, dose: 3.12 mg/kg/injection, schedule: Q01DX009 (ip), vehicle: saline with Tween-80) 96 % of control; (endpoint: mean survival time, dose: 3.12 mg/kg/injection, schedule: Q01DX009 (ip), vehicle: saline) 94 % of control; (endpoint: mean survival time, dose: 6.25 mg/kg/injection, schedule: Q01DX009 (ip), vehicle: saline with Tween-80) 101 % of control; (endpoint: mean survival time, dose: 6.25 mg/kg/injection, schedule: Q01DX009 (ip), vehicle: saline) 96 % of control; (endpoint: mean survival time, dose: 12.5 mg/kg/injection, schedule: Q01DX009 (ip), vehicle: saline with Tween-80) 101 % of control. In addition, the T/C was 100 % of control (endpoint: mean survival time, dose: 12.5 mg/kg/injection, schedule: Q01DX009 (ip), vehicle: saline); 106 % of control (endpoint: mean survival time, dose: 25.0 mg/kg/injection, schedule: Q01DX009 (ip), vehicle: saline with Tween-80); 108 % of control (endpoint: mean survival time, dose: 25.0 mg/kg/injection, schedule: Q01DX009 (ip), vehicle: saline); 112 % of control under setting [5]; 100 % of control (endpoint: mean survival time, dose: 50.0 mg/kg/injection, schedule: Q01DX009 (ip), vehicle: saline); 100 % of control under setting [4].
On to `C(=C1c2ccccc2-c2ccccc21)c1cccnc1`, for which the T/C was 98 % of control under setting [6]; 101 % of control under setting [7]; 102 % of control under setting [8]; 101 % of control under setting [9]; 88 % of control (endpoint: mean survival time, dose: 400.0 mg/kg/injection, schedule: Q01DX009 (ip), vehicle: saline with Tween-80); 95 % of control (endpoint: mean survival time, dose: 400.0 mg/kg/injection, schedule: Q04DX003 (ip), vehicle: saline with Tween-80).
For `CCCC(=O)OCc1cc(=O)n(C)c2c3c4c(cc12)c(C)cc(=O)n4CO3`, the T/C (endpoint: mean survival time, dose: 1.56 mg/kg/injection, schedule: Q01DX009 (ip), vehicle: Klucel (hydroxypropylcellulose) (HPC)) is 97 % of control; the T/C (endpoint: mean survival time, dose: 3.12 mg/kg/injection, schedule: Q01DX009 (ip), vehicle: Klucel (hydroxypropylcellulose) (HPC)) is 106 % of control and 112 % of control; the T/C (endpoint: mean survival time, dose: 6.25 mg/kg/injection, schedule: Q01DX009 (ip), vehicle: Klucel (hydroxypropylcellulose) (HPC)) was 116 % of control and 105 % of control and 109 % of control; the T/C (endpoint: mean survival time, dose: 12.5 mg/kg/injection, schedule: Q01DX009 (ip), vehicle: Klucel (hydroxypropylcellulose) (HPC)) was 113 % of control and 107 % of control and 110 % of control; the T/C (endpoint: mean survival time, dose: 25.0 mg/kg/injection, schedule: Q01DX009 (ip), vehicle: Klucel (hydroxypropylcellulose) (HPC)) was 117 % of control and 119 % of control and 124 % of control; the T/C (endpoint: mean survival time, dose: 50.0 mg/kg/injection, schedule: Q01DX009 (ip), vehicle: Klucel (hydroxypropylcellulose) (HPC)) was 118 % of control and 124 % of control. In addition, under “endpoint: mean survival time, dose: 100.0 mg/kg/injection, schedule: Q01DX009 (ip), vehicle: Klucel (hydroxypropylcellulose) (HPC)”, the T/C is 96 % of control.
`Cc1ccc(S(=O)(=O)OCC2C(COS(=O)(=O)c3ccc(C)cc3)C3CCC2C2C3C3C2C2(C)C(=O)C3(C)C(c3ccccc3)=C2c2ccccc2)cc1` (centres undefined): the T/C (endpoint: mean survival time, dose: 100.0 mg/kg/injection, schedule: Q04DX002 (ip), vehicle: other) was 102 % of control; the T/C (endpoint: mean survival time, dose: 200.0 mg/kg/injection, schedule: Q04DX002 (ip), vehicle: other) is 102 % of control; the T/C (endpoint: mean survival time, dose: 400.0 mg/kg/injection, schedule: Q04DX002 (ip), vehicle: other) is 111 % of control.
For `COc1ccc(C2=CC(=O)N(C(C)C)C2=O)cc1`, the T/C (endpoint: mean survival time, dose: 25.0 mg/kg/injection, schedule: Q04DX003 (ip), vehicle: saline with Tween-80) is 116 % of control; the T/C (endpoint: mean survival time, dose: 50.0 mg/kg/injection, schedule: Q04DX003 (ip), vehicle: saline with Tween-80) is 93 % of control; the T/C under setting [7] was 98 % of control; the T/C under setting [9] was 108 % of control.
In the case of `c1ccc(CCN2CCCCC2)nc1`, the T/C by setting is: (endpoint: mean survival time, dose: 3.13 mg/kg/injection, schedule: Q04DX003 (ip), vehicle: saline with Tween-80) 93 % of control; (endpoint: mean survival time, dose: 6.25 mg/kg/injection, schedule: Q04DX003 (ip), vehicle: saline with Tween-80) 93 % of control.
As to `NCCNCC(=O)O`, the T/C under setting [10] was 97 % of control, the T/C under setting [11] is 93 % of control and the T/C under setting [12] was 97 % of control.
Turning to `CC[C@@]1(O)C(=O)OCc2c1cc1n(c2=O)Cc2cc3cc(OC)ccc3nc2-1`, the T/C is 119 % of control (endpoint: mean survival time, dose: 0.78 mg/kg/injection, schedule: Q04DX003 (ip), vehicle: water); 155 % of control and 181 % of control (endpoint: mean survival time, dose: 3.13 mg/kg/injection, schedule: Q04DX003 (ip), vehicle: water); 113 % of control (endpoint: mean survival time, dose: 6.25 mg/kg/injection, schedule: Q04DX003 (ip), vehicle: water).

Values taken from PubChem BioAssay AID256 (DTP/NCI, 2004).
